From US10112941B2, “Tricyclic compounds as anticancer agents” (BRISTOL-MYERS SQUIBB COMPANY, priority 2013, dated 2018)

Target: BRD4 (Homo sapiens, UniProt O60885)
Assay: Time Resolved Fluorescence Resonance Energy Transfer (TR-FRET) binding assay, BRD4
Settings: one of the FRET assays described; read-out: FRET BRD4 IC50

Row | SMILES | IC50 [nM]
1 | Cc1nnn(C)c1-c1cnc2c3ccc(C(C)(C)O)cc3n([C@@H](c3ccccc3)C3CCOCC3)c2c1 [Example 91, 2-[3-(dimethyl-1H-1,2,3-triazol-5-yl)-5-[(R)-oxan-4-yl(phenyl)(^2H)methyl]-5H-pyrido[3,2-b]indol-7-yl]propan-2-ol] | < 25
2 | [2H][C@@](c1ccccc1F)(C1CCOCC1)n1c2cc(C(C)(C)O)ccc2c2ncc(-c3c(C)nnn3C)cc21 [Example 92, 2-[3-(Dimethyl-1H-1,2,3-triazol-5-yl)-5-[(S)-oxan-4-yl(2-fluorophenyl)(^2H)methyl]-5H-pyrido[3,2-b]indol-7-yl]propan-2-ol] | < 5
3 | Cc1nnn(C)c1-c1cnc2c3ccc(C(C)(C)O)cc3n([C@@H](c3ccccc3F)C3CCOCC3)c2c1 [Example 93, 2-[3-(dimethyl-1H-1,2,3-triazol-5-yl)-5-[(R)-oxan-4-yl(2-fluorophenyl)(^2H)methyl]-5H-pyrido[3,2-b]indol-7-yl]propan-2-ol] | < 5
4 | Cc1nnn(C)c1-c1cnc2c3c(F)cc(C(C)(C)O)cc3n([C@H](c3ccccc3F)C3CCOCC3)c2c1 [Example 114, 2-[3-(Dimethyl-1H-1,2,3-triazol-5-yl)-9-fluoro-5-[(S)-(2-fluorophenyl)(oxan-4-yl)methyl]-5H-pyrido[3,2-b]indol-7-yl]propan-2-ol] | < 5
5 | Cc1nnn(C)c1-c1cnc2c3c(C(=O)NC4CC4)cccc3n([C@H](c3ccccc3)C3CCOCC3)c2c1 [Example 151, N-Cyclopropyl-3-(dimethyl-1H-1,2,3-triazol-5-yl)-5-[(S)-oxan-4-yl(phenyl)methyl]-5H-pyrido[3,2-b]indole-9-carboxamide] | < 5
6 | Cc1nnn(C)c1-c1cnc2c3c(F)ccc(CO)c3n([C@H](c3ccccc3)C3CCOCC3)c2c1 [Example 152, [3-(Dimethyl-1H-1,2,3-triazol-5-yl)-9-fluoro-5-[(S)-oxan-4-yl(phenyl)methyl]-5H-pyrido[3,2-b]indol-6-yl]methanol] | < 5
7 | Cc1nnn(C)c1-c1cnc2c3cc(CCC(C)(C)O)ccc3n([C@H](c3ccccc3)C3CCOCC3)c2c1 [Example 153, 4-[3-(Dimethyl-1H-1,2,3-triazol-5-yl)-5-[(S)-oxan-4-yl(phenyl)methyl]-5H-pyrido[3,2-b]indol-8-yl]-2-methylbutan-2-ol] | < 5
8 | [2H]C([2H])([2H])c1nnn(C)c1-c1cnc2c3ccc(S(C)(=O)=O)cc3n(C(c3ccccc3)C3CCC(F)(F)CC3)c2c1 (stereo not drawn) [Example 158, 5-{5-[(4,4-Difluorocyclohexyl)(phenyl)methyl]-7-methanesulfonyl-5H-pyrido[3,2-b]indol-3-yl}-4-(^2H3)methyl-1-methyl-1H-1,2,3-triazole] | < 5
9 | [2H]C([2H])([2H])c1nnn(C)c1-c1cnc2c3ccc(S(C)(=O)=O)cc3n(C(c3ccccc3)C3CCC(F)(F)CC3)c2c1 (stereo not drawn) [Example 159, 5-{5-[(4,4-Difluorocyclohexyl)(phenyl)methyl]-7-methanesulfonyl-5H-pyrido[3,2-b]indol-3-yl}-4-(^2H3)methyl-1-methyl-1H-1,2,3-triazole] | < 5
10 | Cc1nnn(C)c1-c1cnc2c3c(S(C)(=O)=O)cc(F)c(F)c3n([C@H](c3ccccc3)C3CCOCC3)c2c1 [Example 160, 5-{6,7-Difluoro-9-methanesulfonyl-5-[(S)-oxan-4-yl(phenyl)methyl]-5H-pyrido[3,2-b]indol-3-yl}-1,4-dimethyl-1H-1,2,3-triazole] | < 5
11 | [2H]C([2H])([2H])c1nnn(C)c1-c1cnc2c3c(S(C)(=O)=O)cc(F)c(F)c3n([C@H](c3ccccc3)C3CCOCC3)c2c1 [Example 161, 5-{6,7-Difluoro-9-methanesulfonyl-5-[(S)-oxan-4-yl(phenyl)methyl]-5H-pyrido[3,2-b]indol-3-yl}-4-(^2H3)methyl-1-methyl-1H-1,2,3-triazole] | < 5
12 | [2H]C([2H])([2H])c1nnn(C)c1-c1cnc2c3c(S(C)(=O)=O)cc(OC)c(OC)c3n([C@H](c3ccccc3)C3CCOCC3)c2c1 [Example 162, 5-{9-Methanesulfonyl-6,7-dimethoxy-5-[(S)-oxan-4-yl(phenyl)methyl]-5H-pyrido[3,2-b]indol-3-yl}-4-(^2H3)methyl-1-methyl-1H-1,2,3-triazole] | < 5
13 | [2H]C([2H])([2H])c1nnn(C)c1-c1cnc2c3c(S(C)(=O)=O)cc(F)c(OC)c3n([C@H](c3ccccc3)C3CCOCC3)c2c1 [Example 163, 5-{7-Fluoro-9-methanesulfonyl-6-methoxy-5-[(S)-oxan-4-yl(phenyl)methyl]-5H-pyrido[3,2-b]indol-3-yl}-4-(^2H3)methyl-1-methyl-1H-1,2,3-triazole] | < 5
14 | Cc1noc(C)c1-c1cnc2c3ccc(S(C)(=O)=O)cc3n([C@H](c3ccccc3)C3CCOCC3)c2c1 [Example 171, 4-{7-Methanesulfonyl-5-[(S)-oxan-4-yl(phenyl)methyl]-5H-pyrido[3,2-b]indol-3-yl}-3,5-dimethyl-1,2-oxazole] | < 5
15 | Cc1noc(C)c1-c1cnc2c3ccc(S(C)(=O)=O)cc3n([C@H](c3ccc(F)cc3)C3CCOCC3)c2c1 [Example 172, 4-{5-[(S)-(4-Fluorophenyl)(oxan-4-yl)methyl]-7-methanesulfonyl-5H-pyrido[3,2-b]indol-3-yl}-3,5-dimethyl-1,2-oxazole] | < 5
16 | Cc1noc(C)c1-c1cnc2c3ccc(S(C)(=O)=O)cc3n([C@H](c3ccccc3F)C3CCOCC3)c2c1 [Example 173] | < 5
17 | Cc1noc(C)c1-c1cnc2c3ccc(S(C)(=O)=O)cc3n([C@@H](c3ccccc3F)C3CCOCC3)c2c1 [Example 174] | < 5
18 | Cc1nnn(C)c1-c1cnc2c3cc(C(C)(C)O)ccc3n([C@H](c3ccccc3)C3CCOCC3)c2c1 [Example 175, 2-[3-(Dimethyl-1H-1,2,3-triazol-5-yl)-5-[(S)-oxan-4-yl(phenyl)methyl]-5H-pyrido[3,2-b]indol-8-yl]propan-2-ol] | < 5
19 | Cc1nnn(C)c1-c1cnc2c3cc(C(C)(C)O)ccc3n([C@H](c3ccc(F)cc3)C3CCOCC3)c2c1 [Example 176, 2-[3-(Dimethyl-1H-1,2,3-triazol-5-yl)-5-[(S)-(4-fluorophenyl)(oxan-4-yl)methyl]-5H-pyrido[3,2-b]indol-8-yl]propan-2-ol] | < 5
20 | Cc1nnn(C)c1-c1cnc2c3ccc(S(C)(=O)=O)cc3n([C@H](c3ccccc3)C3CCOCC3)c2c1 [Example 177, 5-{7-Methanesulfonyl-5-[(S)-oxan-4-yl(phenyl)methyl]-5H-pyrido[3,2-b]indol-3-yl}-1,4-dimethyl-1H-1,2,3-triazole] | < 5
21 | Cc1nnn(C)c1-c1cnc2c3ccc(S(C)(=O)=O)cc3n([C@H](c3ccc(F)cc3)C3CCOCC3)c2c1 [Example 178, 5-{5-[(S)-(4-Fluorophenyl)(oxan-4-yl)methyl]-7-methanesulfonyl-5H-pyrido[3,2-b]indol-3-yl}-1,4-dimethyl-1H-1,2,3-triazole] | < 5
22 | Cn1nnc(CO)c1-c1cnc2c3ccc(S(C)(=O)=O)cc3n([C@H](c3ccccc3)C3CCOCC3)c2c1 [Example 179, (5-{7-Methanesulfonyl-5-[(S)-oxan-4-yl(phenyl)methyl]-5H-pyrido[3,2-b]indol-3-yl}-1-methyl-1H-1,2,3-triazol-4-yl)methanol] | < 5
23 | Cn1nnc(CF)c1-c1cnc2c3ccc(S(C)(=O)=O)cc3n([C@H](c3ccccc3)C3CCOCC3)c2c1 [Example 180, 4-(Fluoromethyl)-5-{7-methanesulfonyl-5-[(S)-oxan-4-yl(phenyl)methyl]-5H-pyrido[3,2-b]indol-3-yl}-1-methyl-1H-1,2,3-triazole] | < 5
24 | Cc1nnn(C)c1-c1cnc2c3c(F)ccc(S(C)(=O)=O)c3n([C@H](c3ccccc3)C3CCOCC3)c2c1 [Example 181, 5-{9-Fluoro-6-methanesulfonyl-5-[(S)-oxan-4-yl(phenyl)methyl]-5H-pyrido[3,2-b]indol-3-yl}-1,4-dimethyl-1H-1,2,3-triazole] | < 5
25 | COc1ccc(S(C)(=O)=O)c2c1c1ncc(-c3c(C)nnn3C)cc1n2[C@H](c1ccccc1)C1CCOCC1 [Example 182, 5-{6-Methanesulfonyl-9-methoxy-5-[(S)-oxan-4-yl(phenyl)methyl]-5H-pyrido[3,2-b]indol-3-yl}-1,4-dimethyl-1H-1,2,3-triazole] | < 5
26 | [2H]C([2H])([2H])c1nnn(C)c1-c1cnc2c3c(OC)ccc(S(C)(=O)=O)c3n([C@H](c3ccccc3)C3CCOCC3)c2c1 [Example 183, 5-{6-Methanesulfonyl-9-methoxy-5-[(S)-oxan-4-yl(phenyl)methyl]-5H-pyrido[3,2-b]indol-3-yl}-4-(^2H3)methyl-1-methyl-1H-1,2,3-triazole] | < 5
27 | [2H]C([2H])([2H])Oc1ccc(S(=O)(=O)C([2H])([2H])[2H])c2c1c1ncc(-c3c(C)nnn3C)cc1n2[C@H](c1ccccc1)C1CCOCC1 [Example 184, 5-[6-(^2H3)Methanesulfonyl-9-(^2H3)methoxy-5-[(S)-oxan-4-yl(phenyl)methyl]-5H-pyrido[3,2-b]indol-3-yl]-1,4-dimethyl-1H-1,2,3-triazole] | < 5
28 | COc1ccc(S(C)(=O)=O)c2c1c1ncc(-c3c(C)noc3C)cc1n2[C@H](c1ccccc1)C1CCOCC1 [Example 185, 4-{6-Methanesulfonyl-9-methoxy-5-[(S)-oxan-4-yl(phenyl)methyl]-5H-pyrido[3,2-b]indol-3-yl}-3,5-dimethyl-1,2-oxazole] | < 5
29 | COc1ccc(S(C)(=O)=O)c2c1c1ncc(-c3c(C)noc3C)cc1n2[C@H](c1ccccc1F)C1CCOCC1 [Example 186, 4-{5-[(S)-(2-Fluorophenyl)(oxan-4-yl)methyl]-6-methanesulfonyl-9-methoxy-5H-pyrido[3,2-b]indol-3-yl}-3,5-dimethyl-1,2-oxazole] | < 5
30 | COc1ccc(S(C)(=O)=O)c2c1c1ncc(-c3c(C)noc3C)cc1n2[C@H](c1ccc(F)cc1)C1CCOCC1 [Example 187, 4-{5-[(S)-(4-Fluorophenyl)(oxan-4-yl)methyl]-6-methanesulfonyl-9-methoxy-5H-pyrido[3,2-b]indol-3-yl}-3,5-dimethyl-1,2-oxazole] | < 5
